Source: patent US9107408B2, “Plant disease controlling composition and method for controlling plant disease” (SUMITOMO CHEMICAL COMPANY, LIMITED, priority 2010, dated 2015)
Like-named read-outs stand apart in the source and are kept apart here.

Test system: gray mold fungus (Botrytis cinerea)
Experiment: Cucumber leaf disk preventive test against gray mold fungus
Type: in vivo
Details: for pest or weed control at 0.5 ppm / pest or weed control at 5 ppm: Botrytis cinerea, foliar, 96 h, read-out: preventive value (%)
Experimental: True leaf of cucumber is punched out with cork borer to 13 mm in diameter to prepare a leaf disk. In 24 well microwell plate that is dispensed with 1 ml 0.8% water agar, the leaf disk is placed such that the upper side of the leaf is in an upward direction. Thereto is added 20 micro liter a testing solution prepared by mixing a dimethyl sulfoxide solution of the present compound (racemate) and a dimethyl sulfoxide solution of tebuconazole to a predetermined concentration to treat the leaf disk.
After confirming that the testing medical solution is dried, conidium of gray mold fungus (Botrytis cinerea) is suspended into potato dextrose broth (DIFCO) in a density of about 10^5 conidium/mL and is then subjected to a spray inoculation. After leaving to stand the leaf disk in a growth chamber set up at 15° C. for four days, an onset area on the leaf is measured and then calculated an onset area rate (hereinafter, referred to as an onset area rate of treated group).
The same operation is carried out with 20 micro liter water instead of 20 micro liter a testing medicine solution to calculate an onset area rate (hereinafter, referred to an onset area rate of non-treated group).
A preventive value is calculated from the above onset area rate of treated group and the onset area rate of non-treated group by the following equation: Preventive value (%)=100×(A−B)/A
A: an onset area rate of treated group
B: an onset area rate of non-treated group
The same operations as described in Test Example 1 are carried out with triadimenol, bitertanol, oxpoconazole fumarate, cyazofamid, pefurazoate, triflumizole, or hymexazol instead of tebuconazole, so as to calculate respective preventive values.
Also for comparison, the same operations as described in Test Example 1 are carried out with the exception that the testing medicine solution is substituted with a predetermined concentration of each dimethyl sulfoxide solution of the present compound (racemate), triadimenol, bitertanol, oxpoconazole fumarate, cyazofamid, pefurazoate, triflumizole, or hymexazol, so as to calculate respective preventive values.
For comparison, the same operations as described in Test Example 1 are carried out with the exception that the testing medicine solution is substituted with a predetermined concentration of a dimethyl sulfoxide solution of tebuconazole, so as to calculate a preventive value.

[1] = azole compound alone 0.5 ppm, cucumber leaf disk, 15° C., four days
[2] = azole compound alone 5.0 ppm, cucumber leaf disk, 15° C., four days

| SMILES | pest or weed control at 0.5 ppm [1] [%] | pest or weed control at 5 ppm [2] [%] | other results |
| --- | --- | --- | --- |
| Cc1ccc(-c2c(Cl)nc(C#N)n2S(=O)(=O)N(C)C)cc1 [cyazofamid] | 10 | 15 |  |
| C=CCCCOC(=O)C(CC)N(Cc1ccco1)C(=O)n1ccnc1 (stereo not shown) [pefurazoate] |  |  | pest or weed control at 0.5 ppm: 44%; pest or weed control at 5 ppm: 53% |
| Cc1cc(O)no1 [hymexazol] | 5 | 10 |  |
| CCCOC/C(=N\c1ccc(Cl)cc1C(F)(F)F)n1ccnc1 [triflumizole] | 44 | 57 |  |
| CC(C)(C)C(O)(CCc1ccc(Cl)cc1)Cn1cncn1 (stereo not shown) [tebuconazole] | 40 | 54 |  |
| CC1(C)COC(C)(CCCc2ccc(Cl)cc2)N1C(=O)n1ccnc1.CC1(C)COC(C)(CCCc2ccc(Cl)cc2)N1C(=O)n1ccnc1.O=C(O)/C=C/C(=O)O (stereo not shown) [oxpoconazole fumarate] |  |  | preventive value (%) [1]: 49%; preventive value (%) [2]: 59% |
| CC(C)(C)C(O)C(Oc1ccc(-c2ccccc2)cc1)n1cncn1 (stereo not shown) [bitertanol] | 45 | 56 |  |
| CC(C)(C)C(O)C(Oc1ccc(Cl)cc1)n1cncn1 (stereo not shown) [triadimenol] | 45 | 58 |  |
